Measurements published in patent US20220298141A1, “ENZYME INHIBITORS” (KALVISTA PHARMACEUTICALS LIMITED, priority 2019, published 2022).

Target: T1, Human Factor XIIa (Homo sapiens, UniProt P00748)
T1 construct: purchased Enzyme Research Laboratories
T1 sequence (P00748 373-615 limits assumed): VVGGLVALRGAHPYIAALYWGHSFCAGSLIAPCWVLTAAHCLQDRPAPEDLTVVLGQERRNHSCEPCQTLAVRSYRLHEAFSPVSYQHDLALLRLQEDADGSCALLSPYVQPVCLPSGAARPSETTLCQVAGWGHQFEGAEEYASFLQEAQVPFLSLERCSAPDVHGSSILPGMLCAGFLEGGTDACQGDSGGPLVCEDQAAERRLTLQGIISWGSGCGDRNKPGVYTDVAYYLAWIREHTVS
T1 sequence (P00748 20-372 partner limits assumed): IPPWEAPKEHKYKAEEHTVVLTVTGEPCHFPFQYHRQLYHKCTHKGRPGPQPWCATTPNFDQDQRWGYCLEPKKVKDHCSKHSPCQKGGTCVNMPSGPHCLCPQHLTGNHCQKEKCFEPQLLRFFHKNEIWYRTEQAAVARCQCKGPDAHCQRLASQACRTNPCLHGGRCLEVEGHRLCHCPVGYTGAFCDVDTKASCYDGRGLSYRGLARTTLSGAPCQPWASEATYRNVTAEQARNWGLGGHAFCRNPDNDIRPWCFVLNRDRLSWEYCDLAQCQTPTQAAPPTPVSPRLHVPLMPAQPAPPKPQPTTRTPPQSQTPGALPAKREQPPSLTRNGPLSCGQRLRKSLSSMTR
Test: Determination of Factor XIIa inhibitory activity in vitro (fluorogenic substrate H-DPro-Phe-Arg-AFC)
Type: biochemical
Settings: Human Factor XIIa (Enzyme Research Laboratories), 25° C., read-out: Human FXIIa IC50
Experimental: Determination of the % Inhibition for FXIIa
Factor XIIa inhibitory activity in vitro was determined using standard published methods (see e.g. Shori et al., Biochem. Pharmacol., 1992, 43, 1209; Baeriswyl et al., ACS Chem. Biol., 2015, 10 (8) 1861; Bouckaert et al., European Journal of Medicinal Chemistry 110 (2016) 181). Human Factor XIIa (Enzyme Research Laboratories) was incubated at 25° C. with the fluorogenic substrate H-DPro-Phe-Arg-AFC and various concentrations of the test compound. Residual enzyme activity (initial rate of reaction) was determined by measuring the […] and the IC50 value for the test compound was determined.

Row | SMILES | IC50
1 | CN(C)CCCOc1cccc(CNc2ncc(Cl)cc2C(=O)NCc2ccc3c(N)nccc3c2)c1 [Example 11.07] | 1 to 3 µM
2 | CN1CCN(c2ccccc2CNc2ncc(C(=O)NCc3ccc4c(N)nccc4c3)cc2Cl)CC1 [Example 11.08] | 10 to 40 µM
3 | Nc1nccc2cc(CNC(=O)c3cnc(NCC4CCN(Cc5ccccc5)CC4)c(Cl)c3)ccc12 [Example 11.10] | 3 to 10 µM
4 | COc1ccc(CNc2ncc(C(=O)NCc3ccc4c(N)nccc4c3)cc2Cl)cc1 [Example 11.11] | 10 to 40 µM
5 | CS(=O)(=O)c1cccc(CNc2ncc(C(=O)NCc3ccc4c(N)nccc4c3)cc2Cl)c1 [Example 11.12] | 3 to 10 µM
6 | Nc1nccc2cc(CNC(=O)c3cnc(NC4CCOCC4)c(Cl)c3)ccc12 [Example 11.13] | 10 to 40 µM
7 | Nc1nccc2cc(CNC(=O)c3cnc(NCCN4CCCCC4)c(Cl)c3)ccc12 [Example 11.14] | 3 to 10 µM
8 | CN1CCN(CCNc2ncc(C(=O)NCc3ccc4c(N)nccc4c3)cc2Cl)CC1 [Example 11.15] | 10 to 40 µM
9 | CN1CCC(CNc2ncc(C(=O)NCc3ccc4c(N)nccc4c3)cc2Cl)CC1 [Example 11.16] | 3 to 10 µM
10 | Nc1nccc2cc(CNC(=O)c3cnc(NCCn4ccnc4)c(Cl)c3)ccc12 [Example 11.17] | 10 to 40 µM
11 | Nc1nccc2cc(CNC(=O)c3cnc(NCc4ccccn4)c(Cl)c3)ccc12 [Example 11.18] | 10 to 40 µM
12 | Nc1nccc2cc(CNC(=O)c3cnc(NCc4cccnc4)c(Cl)c3)ccc12 [Example 11.19] | 10 to 40 µM
13 | CC(C)N(CCNc1ncc(C(=O)NCc2ccc3c(N)nccc3c2)cc1Cl)C(C)C [Example 11.20, N-((1-aminoisoquinolin-6-yl)methyl)-5-chloro-6-((2-(diisopropylamino)ethyl)amino)nicotinamide] | 1 to 3 µM
14 | CN(C)CCCNc1ncc(C(=O)NCc2ccc3c(N)nccc3c2)cc1Cl [Example 11.21] | 3 to 10 µM
15 | CC(C)N1CCN(CCCNc2ncc(C(=O)NCc3ccc4c(N)nccc4c3)cc2Cl)CC1 [Example 11.22] | 3 to 10 µM
16 | CN(C)CCOc1ccc(CNc2ncc(C(=O)NCc3ccc4c(N)nccc4c3)cc2Cl)cc1 [Example 11.23, N-((1-aminoisoquinolin-6-yl)methyl)-5-chloro-6-((4-(2-(dimethylamino)ethoxy)benzyl)amino)nicotinamide] | 3 to 10 µM
17 | CN1CCN(CCCNc2ncc(C(=O)NCc3ccc4c(N)nccc4c3)cc2Cl)CC1 [Example 11.24] | 3 to 10 µM
18 | COc1ccc(Nc2ncc(C(=O)NCc3ccc4c(N)nccc4c3)cc2Cl)cc1 [Example 11.25] | 10 to 40 µM
19 | CN(C)c1ccc(Nc2ncc(C(=O)NCc3ccc4c(N)nccc4c3)cc2Cl)cc1 [Example 11.26] | 10 to 40 µM
20 | Nc1nccc2cc(CNC(=O)c3cnc(Nc4ccc(N5CCOCC5)cc4)c(Cl)c3)ccc12 [Example 11.27] | 10 to 40 µM
21 | Nc1nccc2cc(CNC(=O)c3cnc(Oc4ccc(Cl)cc4)c(Cl)c3)ccc12 [Example 13.01] | 10 to 40 µM

Row | SMILES | IC50
22 | COc1ccc(Oc2ncc(C(=O)NCc3ccc4c(N)nccc4c3)cc2Cl)cc1 [Example 13.02] | 10 to 40 µM
23 | Nc1nccc2cc(CNC(=O)c3cnc(Oc4cccc(N5CCOCC5)c4)c(Cl)c3)ccc12 [Example 13.03] | 10 to 40 µM
24 | Nc1nccc2cc(CNC(=O)c3cnc(OCc4cccnc4)c(Cl)c3)ccc12 [Example 13.04] | 10 to 40 µM
25 | Nc1nccc2cc(CNC(=O)c3cnc(Oc4ccccc4)c(Cl)c3)ccc12 [Example 13.05] | 10 to 40 µM
26 | Nc1nccc2cc(CNC(=O)c3cnc(Oc4ccccc4Cl)c(Cl)c3)ccc12 [Example 13.06] | 10 to 40 µM
27 | N#Cc1ccc(Oc2ncc(C(=O)NCc3ccc4c(N)nccc4c3)cc2Cl)cc1 [Example 13.07] | 10 to 40 µM
28 | N#Cc1cccc(Oc2ncc(C(=O)NCc3ccc4c(N)nccc4c3)cc2Cl)c1 [Example 13.08] | 10 to 40 µM
29 | N#Cc1ccccc1Oc1ncc(C(=O)NCc2ccc3c(N)nccc3c2)cc1Cl [Example 13.09, N-((1-aminoisoquinolin-6-yl)methyl)-5-chloro-6-(2-cyanophenoxy)nicotinamide] | 3 to 10 µM
30 | CN(C)c1ccc(Oc2ncc(C(=O)NCc3ccc4c(N)nccc4c3)cc2Cl)cc1 [Example 13.10] | 10 to 40 µM
31 | COc1cccc(Oc2ncc(C(=O)NCc3ccc4c(N)nccc4c3)cc2Cl)c1 [Example 13.11] | 10 to 40 µM
32 | COc1ccccc1Oc1ncc(C(=O)NCc2ccc3c(N)nccc3c2)cc1Cl [Example 13.12] | 10 to 40 µM
33 | Cn1cnc2cc(Oc3ncc(C(=O)NCc4ccc5c(N)nccc5c4)cc3Cl)ccc21 [Example 13.13] | 3 to 10 µM
34 | Nc1nccc2cc(CNC(=O)c3cnc(Oc4cccc(N5CCCC5=O)c4)c(Cl)c3)ccc12 [Example 13.14] | 10 to 40 µM
35 | CS(=O)(=O)c1ccc(Oc2ncc(C(=O)NCc3ccc4c(N)nccc4c3)cc2Cl)cc1 [Example 13.15] | 10 to 40 µM
36 | CC(C)NC(=O)N(C)c1ccc(Oc2ncc(C(=O)NCc3ccc4c(N)nccc4c3)cc2Cl)cc1 [Example 13.16] | 3 to 10 µM
37 | CN1CCC(COc2ncc(C(=O)NCc3ccc4c(N)nccc4c3)cc2Cl)CC1 [Example 13.17] | 10 to 40 µM
38 | Nc1nccc2cc(CNC(=O)c3cnc(OCCN4CCCC4)c(Cl)c3)ccc12 [Example 13.18] | 10 to 40 µM
39 | CN(C)CCOc1ncc(C(=O)NCc2ccc3c(N)nccc3c2)cc1Cl [Example 13.19] | 10 to 40 µM
40 | Nc1nccc2cc(CNC(=O)c3cnc(OCc4ccccn4)c(Cl)c3)ccc12 [Example 13.20] | 10 to 40 µM
41 | Nc1nccc2cc(CNC(=O)c3cnc(OCc4ccncc4)c(Cl)c3)ccc12 [Example 13.21] | 10 to 40 µM
42 | CCN(CC)CCCOc1ncc(C(=O)NCc2ccc3c(N)nccc3c2)cc1Cl [Example 13.22] | 10 to 40 µM

Row | SMILES | IC50
43 | CN(C)CCCOc1ncc(C(=O)NCc2ccc3c(N)nccc3c2)cc1Cl [Example 13.23] | 10 to 40 µM
44 | Nc1nccc2cc(CNC(=O)c3cnc(Oc4ccc(N5CCNCC5)cc4)c(Cl)c3)ccc12 [Example 13.24, N-((1-aminoisoquinolin-6-yl)methyl)-5-chloro-6-(4-(piperazin-1-yl)phenoxy)nicotinamide] | 1 to 3 µM
45 | Nc1nccc2cc(CNC(=O)c3cnc(Oc4cccc(N5CCNCC5)c4)c(Cl)c3)ccc12 [Example 13.25] | 3 to 10 µM
46 | CN1CCCN(c2ncc(Cl)cc2C(=O)NCc2ccc3c(N)nccc3c2)CC1 [Example 16.01] | 10 to 40 µM
47 | Nc1nccc2cc(CNC(=O)c3cc(Cl)cnc3N3CC(O)C3)ccc12 [Example 16.02] | 10 to 40 µM
48 | Nc1nccc2cc(CNC(=O)c3cc(Cl)cnc3N3CCN(c4ccncc4)CC3)ccc12 [Example 16.03] | 10 to 40 µM
49 | COc1ccccc1-c1cncc(C(=O)NCc2ccc3c(N)nccc3c2)c1 [Example 19.01, N-((1-aminoisoquinolin-6-yl)methyl)-5-(2-methoxyphenyl)nicotinamide] | 10 to 40 µM
50 | Nc1nccc2cc(CNC(=O)c3cncc(Br)c3)ccc12 [Example 19.02, N-((1-aminoisoquinolin-6-yl)methyl)-5-bromonicotinamide] | 10 to 40 µM
51 | Nc1nccc2cc(CNC(=O)c3cnc4[nH]ccc4c3)ccc12 [Example 19.03, 1H-Pyrrolo[2,3-b]pyridine-5-carboxylic acid (1-amino-isoquinolin-6-ylmethyl)-amide] | 10 to 40 µM
52 | Nc1nccc2cc(CNC(=O)c3cncc(Cl)c3)ccc12 [Example 19.04, N-((1-aminoisoquinolin-6-yl)methyl)-5-chloronicotinamide] | 10 to 40 µM
53 | Nc1nccc2cc(CNC(=O)c3cccc(Cl)c3)ccc12 [Example 19.05, N-((1-aminoisoquinolin-6-yl)methyl)-3-chlorobenzamide] | 10 to 40 µM
54 | Nc1nccc2cc(CNC(=O)c3cnc(Cl)c(Cl)c3)ccc12 [Example 19.06, N-(1-Amino-isoquinolin-6-ylmethyl)-5,6-dichloro-nicotinamide] | 3 to 10 µM
55 | Nc1nccc2cc(CNC(=O)c3cc(Cl)cnc3Oc3ccc(N4CCCC4=O)cc3)ccc12 [Example 22.01, N-((1-aminoisoquinolin-6-yl)methyl)-5-chloro-2-(4-(2-oxopyrrolidin-1-yl)phenoxy)nicotinamide] | 3 to 10 µM
56 | Cn1cnc2cc(Oc3ncc(Cl)cc3C(=O)NCc3ccc4c(N)nccc4c3)ccc21 [Example 22.02] | 10 to 40 µM
57 | CN(C)c1ccc(Oc2ncc(Cl)cc2C(=O)NCc2ccc3c(N)nccc3c2)cc1 [Example 22.03] | 10 to 40 µM
58 | CN(C(=O)C(C)(C)C)c1ccc(Oc2ncc(Cl)cc2C(=O)NCc2ccc3c(N)nccc3c2)cc1 [Example 22.04] | 10 to 40 µM
59 | Nc1nccc2cc(CNC(=O)c3cc(Cl)cnc3Oc3cccc(N4CCCC4=O)c3)ccc12 [Example 22.05] | 10 to 40 µM
60 | Nc1nccc2cc(CNC(=O)c3cc(Cl)cnc3OCCN3CCCCC3)ccc12 [Example 22.06] | 10 to 40 µM
61 | CN1CCC(COc2ncc(Cl)cc2C(=O)NCc2ccc3c(N)nccc3c2)CC1 [Example 22.07] | 10 to 40 µM
